Here are results for six compounds from patent US20130338129A1, “METHOD OF TREATING REFRACTORY CANCER” (Niiki Pharma Inc., priority 2010, published 2013).

Read-outs that look alike come from different tables or passages of the source.

Assay [1] relates to Non-Small Cell Lung Cancer. The assay is described as follows: Human clinical trial (US), refractory lung cancer patients. Type of assay: in vivo. The settings on record: 320 mg/m^2 i.v. day 1, 8, 15 of 28-day cycle, 4 cycles. The protocol:
Patient No. 04-005 was a person with Stage IV Non-Small Cell Lung Cancer, moderately differentiated adenocarcinoma histology, diagnosed in April 2006. […] Combination chemotherapy with docetaxel, carboplatin and bevacizumab was administered between September and December 2006, with which the patient achieved a complete response. The patient suffered a disease recurrence and was started on sorafenib in April 2008. Sorafenib was discontinued in May 2008 due to disease progression. […] Between November 2009 and January 2010, the patient received gemcitibine.
Patient No. 04-011 was a person with Stage IIIB Non-Small Cell Lung Cancer, poorly differentiated adenocarcinoma histology, diagnosed in January 2005. Initial therapy consisted of carboplatin, gemcitibine and zoledronic acid from January 2005 through August 2005, with a partial response. […] In December 2005, chest radiotherapy with 54 Gy, with paclitaxel radiosensitization, was initiated and completed by February 2006. Through the remainder of 2006, the patient received a course of single agent erlotinib and a course of single agent pemetrexed; best response to these therapies is unknown. In January 2007, combination therapy with gemcitibine and navelbine was initiated, but their best response was disease progression. Experimental therapy with PTK787 (vatalanib) and imatinib was initiated in February 2007. […]

Assay [2] relates to Human lung carcinoma cell line A549. The assay is described as follows: MTT Cell Proliferation Assay, A549 cells. Format: cell-based. The note with it: for IC50: A549 cells, MTT, 72 hours post-treatment; for IC50 Ratio (A549/H1975): ratio of IC50 in A549 to IC50 in H1975.
Protocol: (§1) Human lung carcinoma cell line A549 plates were seeded with 2,500 cells/well, and the cells were grown in Ham's F12 medium containing 10% FBS and 1% penicillin/strep/glutamine. Cultures were maintained in a 37° C. humidified 5% CO2/95% air atmosphere. Stock cultures were allowed to grow to 70-80% confluence for this study. […] 1000 μl of medium was removed from each well at 72 hours post-treatment and 10 μl MTT reagent was added to each well. The plates were incubated at 37° C. for 4 hours and then 100 μl of detergent was added. The plates were left overnight at room temperature in the dark and was read on a plate reader using SoftMax® Pro (version 5.2, Molecular Devices).
The absorbance data was analyzed as follows: Absorbance values were converted to Percent of Control and plotted against test agent concentrations for IC50 calculations using SoftMax® Pro (version 5.2, Molecular Devices). The plate blank signal average was subtracted from all wells prior to calculating the Percent of Control. Percent of Control values were calculated by dividing the absorbance values for each test well by the No Drug Control average (column 11 values; cells+vehicle control) and multiplying by 100. Plots of Compound Concentration versus Percent of Control were analyzed using the 4-parameter equation to obtain IC50 values and other parameters that describe the sigmoidal dose response curve.
The IC50 values for the test agents were estimated by curve-fitting the data using the following four parameter-logistic equation:
wherein “Top” is the maximal % of control absorbance (100%), “Bottom” is the minimal % of control absorbance at the highest agent concentration (down to zero), Y is the Percent of Control absorbance, X is the test agent Concentration, IC50 is the concentration of agent that inhibits cell growth by 50% compared to the control cells, n is the slope of the curve.
Assay [3] has as its system Human malignant melanoma cell line G361. Kind of assay: MTT Cell Proliferation Assay, G361 cells. The settings on record: read-out: IC50 (concentration of agent that inhibits cell growth by 50%).
Protocol: as §1
The absorbance data was analyzed as follows: Absorbance values were converted to Percent of Control and plotted against test agent concentrations for IC50 calculations using SoftMax® Pro (version 5.2, Molecular Devices). The plate blank signal average was subtracted from all wells prior to calculating the Percent of Control. Percent of Control values were calculated by dividing the absorbance values for each test well by the No Drug Control average (column 11 values; cells+vehicle control) and multiplying by 100. Plots of Compound Concentration versus Percent of Control were analyzed using the 4-parameter equation to obtain IC50 values and other parameters that describe the sigmoidal dose response curve. […]
In assay [4] the test system is human lung carcinoma cell line H1975. Kind of assay: MTT Cell Proliferation Assay, H1975 cells. Format: cell-based. The protocol:
(“Test Drug”) was 41 μM (FIG. 1).
Table 2 below summarizes the activities on the two compounds in the different lung cancer cell lines tested.

The test system of assay [5] is colorectal adenocarcinoma. The assay is described as follows: Human clinical trial (UK), refractory colorectal cancer patient. The note with it: person, colorectal adenocarcinoma failed oxaliplatin, capecitibine, cetuximab, irinotecan, panitumumab; 500 mg/m^2 i.v. daily days 1-4 of 21-day cycle, 4 cycles. Type of assay: in vivo. An excerpt: The trial enrolled a person with colorectal adenocarcinoma, adenocystic histology, incompletely resected in September 2007. Their initial therapy consisted of oxaliplatin, capecitibine and cetuximab between October 2007 and February 2009 with best response of progressive disease. […] They then were changed to irinotecan and panitumumab, administered between April 2009 and October 2009, again with best response progressive disease.

Assay [6] relates to human lung carcinoma cell line H1975. The settings on record: T790M mutation in the EGFR gene; Bao et al. 2009; cited from earlier work.
A further assay has as its system A549 cells. The settings on record: Denlinger et al. 2004; cited from earlier work.

For the compound `[Cl][Ru-]([Cl])([Cl])[Cl].[Na+].c1ccc2[nH]ncc2c1.c1ccc2[nH]ncc2c1`, the best response result is “stable disease” in assay [1] (Patient No. 04-005, Stage IV NSCLC); “stable disease” in assay [1] (Patient No. 04-011, Stage IIIB NSCLC); “stable disease” in assay [5]. Further, the IC50 in assay [2] came out at 9.9 µM; in assay [3] (G361 melanoma cells, MTT, 72 hours post-treatment), 41 µM; in assay [4] (72 hours post-treatment) it was 33.6 µM. Further, the “IC50 Ratio (A549/H1975)” value in assay [2] turned out to be 0.29.

On to `COc1cc2ncnc(Nc3ccc(F)c(Cl)c3)c2cc1OCCCN1CCOCC1` [gefitinib], for which, in assay [6], the “sensitivity of H1975 cells” value is on record as “resistant”.

Regarding `C#Cc1cccc(Nc2ncnc3cc(OCCOC)c(OCCOC)cc23)c1` [erlotinib], the “sensitivity of H1975 cells” value in assay [6] was “resistant”.

As for `Nc1ccn([C@@H]2O[C@H](CO)[C@@H](O)C2(F)F)c(=O)n1` [gemcitabine], the “sensitivity of A549 cells” value in the assay on A549 cells is listed as “inherently resistant”.

As for `Cn1nnc2c(C(N)=O)ncn2c1=O` [temozolomide], the IC50 in assay [3] (Homo sapiens, G-361, 72 h) was determined as 199 µM.

Turning to `CC(=O)O[C@H]1C(=O)[C@@]2(C)[C@H]([C@H](OC(=O)c3ccccc3)[C@]3(O)C[C@H](OC(=O)[C@H](O)[C@@H](NC(=O)c4ccccc4)c4ccccc4)C(C)=C1C3(C)C)[C@]1(OC(C)=O)CO[C@@H]1C[C@@H]2O` [Paclitaxel, paclitaxel], the IC50 in assay [2] (Homo sapiens) came to 9.92 µM; in assay [4] (Homo sapiens, NCI-H1975, 72 hours post-treatment) it was 0.005 µM. For the same compound, in assay [2], the “IC50 Ratio (A549/H1975)” value was 1984.
